Results published in PubChem BioAssay AID248 (DTP/NCI, 2004).
Where “and” joins values, the source holds several entries; their conditions need not be identical. Equal values may be shown once. Inconclusive results and toxic doses are left out. Cut-off read from the data, not from the text of the source: active = T/C of 150% or more; inactive = T/C below 125%.

System: L1210 leukemia ip in BDF1 mice, survival T/C
Assay: NCI In Vivo Anticancer Drug Screen. Data for tumor model L1210 Leukemia (intraperitoneal) in B6D2F1 (BDF1) mice
Conditions: endpoint: mean survival time, higher = longer survival
Summary of the method: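 Antitumor effect is assessed in tumor-bearing animals. Survival in the compound arm is compared with a vehicle-dosed control arm and expressed as their quotient.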

[1] = dose: 100.0 mg/kg/injection, schedule: Q01DX009 (ip), vehicle: Klucel (hydroxypropylcellulose) (HPC)
[2] = dose: 200.0 mg/kg/injection, schedule: Q01DX009 (ip), vehicle: Klucel (hydroxypropylcellulose) (HPC)
[3] = dose: 400.0 mg/kg/injection, schedule: Q01DX009 (ip), vehicle: Klucel (hydroxypropylcellulose) (HPC)
[4] = dose: 100.0 mg/kg/injection, schedule: Q04DX003 (ip), vehicle: Klucel (hydroxypropylcellulose) (HPC)
[5] = dose: 200.0 mg/kg/injection, schedule: Q04DX003 (ip), vehicle: Klucel (hydroxypropylcellulose) (HPC)
[6] = dose: 400.0 mg/kg/injection, schedule: Q04DX003 (ip), vehicle: Klucel (hydroxypropylcellulose) (HPC)
[7] = dose: 100.0 mg/kg/injection, schedule: Q01DX001 (ip), vehicle: saline
[8] = dose: 200.0 mg/kg/injection, schedule: Q01DX001 (ip), vehicle: saline
[9] = dose: 400.0 mg/kg/injection, schedule: Q01DX001 (ip), vehicle: saline
[10] = dose: 50.0 mg/kg/injection, schedule: Q04DX002 (ip), vehicle: Klucel (hydroxypropylcellulose) (HPC)
[11] = dose: 100.0 mg/kg/injection, schedule: Q01DX001 (ip), vehicle: Klucel (hydroxypropylcellulose) (HPC)
[12] = dose: 200.0 mg/kg/injection, schedule: Q01DX001 (ip), vehicle: Klucel (hydroxypropylcellulose) (HPC)
[13] = dose: 400.0 mg/kg/injection, schedule: Q01DX001 (ip), vehicle: Klucel (hydroxypropylcellulose) (HPC)
[14] = dose: 25.0 mg/kg/injection, schedule: Q01DX009 (ip), vehicle: Klucel (hydroxypropylcellulose) (HPC)
[15] = dose: 50.0 mg/kg/injection, schedule: Q01DX009 (ip), vehicle: Klucel (hydroxypropylcellulose) (HPC)
[16] = dose: 100.0 mg/kg/injection, schedule: Q01DX009 (ip), vehicle: saline with Tween-80
[17] = dose: 100.0 mg/kg/injection, schedule: Q04DX003 (ip), vehicle: saline with Tween-80
[18] = dose: 200.0 mg/kg/injection, schedule: Q04DX003 (ip), vehicle: saline with Tween-80
[19] = dose: 50.0 mg/kg/injection, schedule: Q01DX001 (ip), vehicle: saline
[20] = dose: 400.0 mg/kg/injection, schedule: Q04DX003 (ip), vehicle: saline with Tween-80

Measured: T/C

Oc1ccccc1C=NCCN=Cc1ccccc1O.[Ni]
inactive: dose: 88.0 mg/kg/injection, schedule: Q01DX001 (ip), vehicle: other 109 % of control | dose: 100.0 mg/kg/injection, schedule: Q01DX001 (ip), vehicle: other 100 % of control | dose: 133.0 mg/kg/injection, schedule: Q01DX001 (ip), vehicle: other 107 % of control | dose: 200.0 mg/kg/injection, schedule: Q01DX001 (ip), vehicle: other 108 % of control

Cc1ccc([N+](=O)[O-])cc1NC(=O)Nc1cccc2c(O)cccc12
inactive: [1] 86 % of control | [2] 100 % of control

Cc1ccc(C(=O)C(O)c2ccc(C)cc2)cc1 (stereo unspecified)
inactive: [1] 98 % of control | [2] 101 % of control | [3] 98 % of control

C=C1C=C(c2ccccc2)N(C(=O)c2ccccc2I)CCN1C(=O)c1ccccc1I
inactive: [4] 114 % of control | [5] 89 % of control | [6] 94 % of control

OC1/C=C\CCCCC1 (stereo unspecified)
inactive: [7] 98 % of control | [8] 93 % of control | [9] 98 % of control

Clc1nc(Br)[nH]c1Cl
inactive: dose: 1.56 mg/kg/injection, schedule: Q01DX009 (ip), vehicle: Klucel (hydroxypropylcellulose) (HPC) 100 % of control | dose: 3.12 mg/kg/injection, schedule: Q01DX009 (ip), vehicle: Klucel (hydroxypropylcellulose) (HPC) 107 % of control | dose: 6.25 mg/kg/injection, schedule: Q01DX009 (ip), vehicle: Klucel (hydroxypropylcellulose) (HPC) 100 % of control and 113 % of control

CCO/C=C1\SC(=S)N(c2ccco2)C1=O
inactive: dose: 100.0 mg/kg/injection, schedule: Q01DX009 (ip), vehicle: saline sonified 98 % of control | dose: 200.0 mg/kg/injection, schedule: Q01DX009 (ip), vehicle: saline sonified 103 % of control | dose: 400.0 mg/kg/injection, schedule: Q01DX009 (ip), vehicle: saline sonified 92 % of control

CCN(CC)Cc1c(C)cc2oc(=O)c3c(c2c1O)CCCC3
inactive: dose: 100.0 mg/kg/injection, schedule: Q01DX001 (ip), vehicle: carboxymethylcellulose (CMC) 93 % of control | dose: 200.0 mg/kg/injection, schedule: Q01DX001 (ip), vehicle: carboxymethylcellulose (CMC) 93 % of control

CCn1cc(C(=O)O)c(=O)c2cc(OC)c3ccccc3c21
inactive: [10] 92 % of control | dose: 100.0 mg/kg/injection, schedule: Q04DX002 (ip), vehicle: Klucel (hydroxypropylcellulose) (HPC) 103 % of control

CN(C(=S)c1ccc(Cl)cc1)c1ccccc1
inactive: [11] 103 % of control | [4] 92 % of control | [12] 98 % of control | [5] 102 % of control | [13] 103 % of control | [6] 97 % of control

C=C/C(C)=C/[C@H](C)C(=O)C[C@H](O)CC1CC(=O)NC(=O)C1
inactive: dose: 12.5 mg/kg/injection, schedule: Q01DX009 (ip), vehicle: saline with Tween-80 109 % of control | [14] 113 % of control | dose: 25.0 mg/kg/injection, schedule: Q01DX009 (ip), vehicle: saline with Tween-80 120 % of control | [15] 122 % of control | dose: 50.0 mg/kg/injection, schedule: Q01DX009 (ip), vehicle: saline with Tween-80 119 % of control | [1] 90 % of control | [16] 123 % of control

CCC(C)C(CO)c1ccccc1 (stereo unspecified)
inactive: [17] 93 % of control | [18] 91 % of control

CC(=O)CCC1CC(=O)OC1(C)C (stereo unspecified)
inactive: [7] 102 % of control and 100 % of control | dose: 100.0 mg/kg/injection, schedule: Q01DX009 (ip), vehicle: saline 104 % of control and 88 % of control | dose: 100.0 mg/kg/injection, schedule: Q04DX003 (ip), vehicle: acetone 93 % of control | [8] 102 % of control and 100 % of control | dose: 200.0 mg/kg/injection, schedule: Q01DX009 (ip), vehicle: saline 96 % of control and 88 % of control | dose: 200.0 mg/kg/injection, schedule: Q04DX003 (ip), vehicle: acetone 117 % of control | [9] 96 % of control and 106 % of control | dose: 400.0 mg/kg/injection, schedule: Q01DX009 (ip), vehicle: saline 98 % of control and 86 % of control | dose: 400.0 mg/kg/injection, schedule: Q04DX003 (ip), vehicle: acetone 101 % of control

C[N+](C)(C)C(=Nc1ccccc1)c1ccccc1
inactive: dose: 12.5 mg/kg/injection, schedule: Q01DX009 (ip), vehicle: Klucel (hydroxypropylcellulose) (HPC) 100 % of control | [14] 96 % of control | dose: 25.0 mg/kg/injection, schedule: Q04DX003 (ip), vehicle: Klucel (hydroxypropylcellulose) (HPC) 108 % of control | [15] 100 % of control and 105 % of control | dose: 50.0 mg/kg/injection, schedule: Q04DX003 (ip), vehicle: Klucel (hydroxypropylcellulose) (HPC) 94 % of control | [4] 100 % of control

CC1CC(C)(C)N=C(C(C)(C)c2ccccc2)O1 (stereo unspecified)
inactive: dose: 100.0 mg/kg/injection, schedule: Q04DX003 (ip), vehicle: saline sonified 102 % of control | dose: 200.0 mg/kg/injection, schedule: Q04DX003 (ip), vehicle: saline sonified 103 % of control | dose: 400.0 mg/kg/injection, schedule: Q04DX003 (ip), vehicle: saline sonified 98 % of control

CCN1/C(=C/C=C2/SC(=S)N(CC(=O)O)C2=O)Oc2ccccc21
inactive: [19] 100 % of control | [7] 96 % of control | [8] 100 % of control | [9] 106 % of control

COc1cc2c(cc1OC)N(C(C)=O)Cc1cccn1C2
inactive: dose: 12.5 mg/kg/injection, schedule: Q04DX002 (ip), vehicle: Klucel (hydroxypropylcellulose) (HPC) 94 % of control | dose: 25.0 mg/kg/injection, schedule: Q04DX002 (ip), vehicle: Klucel (hydroxypropylcellulose) (HPC) 94 % of control | [10] 94 % of control

CC1COCCN1 (stereo unspecified)
inactive: [19] 91 % of control | [7] 97 % of control | [8] 100 % of control

O=C1CCC(c2ccccc2)c2ccccc21 (stereo unspecified)
inactive: [11] 99 % of control | [12] 97 % of control | [13] 100 % of control

COc1ccnc2ccc(C)c([N+](=O)[O-])c12
inactive: dose: 100.0 mg/kg/injection, schedule: Q04DX003 (ip), vehicle: other 96 % of control | dose: 200.0 mg/kg/injection, schedule: Q04DX003 (ip), vehicle: other 90 % of control

O=S1(=O)C=CCCC=C1
inactive: [10] 105 % of control | dose: 75.0 mg/kg/injection, schedule: Q04DX002 (ip), vehicle: Klucel (hydroxypropylcellulose) (HPC) 112 % of control

O=c1[nH]ncn1-c1ccccc1
inactive: [4] 96 % of control | [5] 92 % of control | [6] 91 % of control

CCOC(=O)C(I)CC (stereo unspecified)
inactive: dose: 25.0 mg/kg/injection, schedule: Q01DX009 (ip), vehicle: water 107 % of control | dose: 50.0 mg/kg/injection, schedule: Q01DX009 (ip), vehicle: water 93 % of control | dose: 100.0 mg/kg/injection, schedule: Q01DX009 (ip), vehicle: water 87 % of control

CC(=O)OC1CCCC23CC(CC12)C(C)(C)C3Br (stereo unspecified)
inactive: [1] 95 % of control | [4] 97 % of control | [2] 100 % of control | [5] 93 % of control | [3] 97 % of control | [6] 95 % of control

Cc1ccc(CN(C)N=Nc2ccc(C#N)cc2)cc1
inactive: [17] 96 % of control | [18] 87 % of control | [20] 94 % of control

COc1ccc(COC(=O)Oc2ccc(C#N)cc2)cc1OC
inactive: [17] 106 % of control | [18] 96 % of control | [20] 93 % of control

O=C(O)c1ccc(NC(=O)c2cccc(F)c2)cc1
inactive: [1] 100 % of control | [2] 108 % of control | [3] 101 % of control

CCOc1ccccc1NC(=O)Oc1ccc(-c2ccccc2)cc1
inactive: [16] 98 % of control | dose: 200.0 mg/kg/injection, schedule: Q01DX009 (ip), vehicle: saline with Tween-80 100 % of control | dose: 400.0 mg/kg/injection, schedule: Q01DX009 (ip), vehicle: saline with Tween-80 93 % of control

CC[N+](C)(CC)CCCOC(=O)c1ccccc1Oc1ccc(C)cc1
inactive: dose: 100.0 mg/kg/injection, schedule: Q04DX003 (ip), vehicle: saline 104 % of control | dose: 200.0 mg/kg/injection, schedule: Q04DX003 (ip), vehicle: saline 93 % of control
